Measured values published in ChEMBL document CHEMBL3638448, “8-[3-amino-piperidin-1-yl]-xanthines, their preparation and their use as pharmaceutical compositions” (2014).

Biological target: Dipeptidyl peptidase 4 (Homo sapiens, UniProt P27487)
Assay: Biological Assay: 50 μl of substrate solution (AFC; AFC is amido-4-trifluoromethylcoumarin), final concentration 100 μM, was placed in black microtitre plates. 20 μl of assay buffer (final concentrations 50 mM Tris HCl pH 7.8, 50 mM NaCl, 1% DMSO) was pipetted therein. The reaction was started by the addition of 30 μl of solubilized Caco-2 protein (final concentration 0.14 μg of protein per well). The test substances under investigation were typically added prediluted to 20 μl, while the volume of assay buffer was then reduced accordingly. The reaction was carried out at ambient temperature, the incubation period was 60 minutes. Then the fluorescence was measured in a Victor 1420 Multilabel Counter, with the excitation wavelength at 405 nm and the emission wavelength at 535 nm.

Dipeptidyl peptidase 4, sequence (P27487 whole entry): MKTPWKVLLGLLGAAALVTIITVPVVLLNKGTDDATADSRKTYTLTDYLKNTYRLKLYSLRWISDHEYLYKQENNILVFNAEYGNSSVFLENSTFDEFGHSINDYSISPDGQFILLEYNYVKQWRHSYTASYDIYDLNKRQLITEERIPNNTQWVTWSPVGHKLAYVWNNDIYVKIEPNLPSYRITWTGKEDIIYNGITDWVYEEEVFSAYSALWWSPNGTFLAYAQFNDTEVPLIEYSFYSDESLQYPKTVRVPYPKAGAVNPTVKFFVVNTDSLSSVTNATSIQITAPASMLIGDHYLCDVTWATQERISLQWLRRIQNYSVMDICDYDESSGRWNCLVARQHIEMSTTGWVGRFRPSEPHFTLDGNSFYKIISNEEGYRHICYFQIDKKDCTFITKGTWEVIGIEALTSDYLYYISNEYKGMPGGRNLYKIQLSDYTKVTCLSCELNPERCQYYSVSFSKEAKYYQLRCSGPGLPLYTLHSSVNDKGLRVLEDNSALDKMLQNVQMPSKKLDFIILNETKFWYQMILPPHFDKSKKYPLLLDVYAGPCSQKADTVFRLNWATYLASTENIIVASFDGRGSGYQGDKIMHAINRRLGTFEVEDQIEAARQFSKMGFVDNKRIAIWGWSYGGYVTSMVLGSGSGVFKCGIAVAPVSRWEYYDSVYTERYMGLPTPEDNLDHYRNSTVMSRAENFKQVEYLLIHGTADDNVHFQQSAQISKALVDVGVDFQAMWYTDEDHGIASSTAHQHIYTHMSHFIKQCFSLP

| Structure (SMILES) | IC50 [nM] |
| --- | --- |
| CC#CCn1c(N2CCC[C@@H](NC(=O)OC(C)(C)C)C2)nc2c1c(=O)n(CC(=O)c1ccccc1Br)c(=O)n2C | 2 |
| CC#CCn1c(N2CCC[C@@H](NC(=O)OC(C)(C)C)C2)nc2c1c(=O)n(Cc1ccc3nc(C)c(C)nc3c1)c(=O)n2C | 2 |
| CC#CCn1c(N2CCC[C@@H](NC(=O)OC(C)(C)C)C2)nc2c1c(=O)n(Cc1cc(C#N)cc3ccccc13)c(=O)n2C | 6 |
| CC#CCn1c(N2CCC[C@@H](NC(=O)OC(C)(C)C)C2)nc2c1c(=O)n(Cc1cc(C#N)c3ccccc3n1)c(=O)n2C | 2 |
| CC#CCn1c(N2CCC[C@@H](NC(=O)OC(C)(C)C)C2)nc2c1c(=O)n(Cc1nc3ccccc3c(C)c1C#N)c(=O)n2C | 2 |
| CC#CCn1c(N2CCC[C@@H](NC(=O)OC(C)(C)C)C2)nc2c1c(=O)n(CC(=O)c1ccccc1[N+](=O)[O-])c(=O)n2C | 3 |
| CC#CCn1c(N2CCC[C@@H](NC(=O)OC(C)(C)C)C2)nc2c1c(=O)n(CC(=O)c1cccc(OC3CC3)c1)c(=O)n2C | 5 |
| CC#CCn1c(N2CCCC(NC(=O)OC(C)(C)C)C2)nc2c1c(=O)n(Cc1nc(NCc3ccccc3)c3ccccc3n1)c(=O)n2C (stereo not given) | 6 |
| CC#CCn1c(N2CCC[C@@H](NC(=O)OC(C)(C)C)C2)nc2c1c(=O)n(Cc1nccc(-c3ccccc3)n1)c(=O)n2C | 2 |
| CC#CCn1c(N2CCC[C@@H](NC(=O)OC(C)(C)C)C2)nc2c1c(=O)n(Cc1nc(-c3ccccc3)nc3ccccc13)c(=O)n2C | 9 |
